The test system of experiment [1] is 3×3 ILL. The experiment is described as follows: 2DCS selection of microarray-immobilized compounds with 32P-labeled 3×3 ILL, Hit-StARTS analysis of RNA-seq. The format is binding. To be noted: Zobs >4. As to the method: The interaction landscape for the ten representative DEL compounds emerging from the FACS screen were then defined by 2DCS (22). In 2DCS, small molecules are site-specifically conjugated to a microarray surface and then probed for binding to an RNA library under highly stringent conditions (FIGS. 2-B & S6). That is, the array is co-incubated with a radioactively labeled RNA library and an excess of competitor oligonucleotides that mimic regions common to all library members. […] To enable site-specific immobilization of compounds 1-10, a C-terminal alkyne handle was installed for CuAAC click (30) coupling to azide-displaying array surfaces. Installation of the alkyne was accomplished by coupling of bromoacetic acid onto rink amide resin followed by nucleophilic displacement with propargylamine prior to the synthesis of the SPDEL compounds (FIG. 2A).
All ten compounds bound to the 3×3 ILL under the highly stringent conditions described above, almost all dose-dependently (FIG. 2B). The RNAs bound to each small molecule were harvested, reverse transcribed into DNA, and sequenced by RNA-seq. The resulting data set was statistically analyzed by using High Throughput Structure-Activity Relationships Through Sequencing (Hit-StARTS) (31) in which the relative frequency of each selected RNA is compared to the frequency of that RNA in the starting library (pooled population comparison). (31) The statistical significance of the enrichment of selected RNAs is quantified by Zobs, which correlates with affinity and selectivity. (31) Here, a cut-off of Zobs >4 was employed, which was empirically determined from measured affinities via evaluation of compound 9 binding with potential RNA motifs extracted from the 2DCS (FIGS. 2-B, 13, & 14). […] This cut-off afforded, on average, 60±40 (range: 6-155) preferred, or privileged, RNA 3D folds for each compound. Compound 6 bound to largest number of RNA targets (n=155) while compound 9 bound the fewest (n=6) (FIG. 14). […]

Experiment [2] has as its system fully paired RNA (loop mutated to a base pair). The experiment is described as follows: Binding affinity by MST, Cy5-labeled fully paired RNA. As to the method:
(§1) Binding affinity measurements: Binding affinities were measured by microscale thermophoresis (MST), performed on a Monolith NT.115 system (NanoTemper Technologies) with Cy5-labeled RNAs. These RNAs include: the 5′GAG/3′CCC SEQ ID NO: 16 loop at pri-miR-27a's Drosha site (Sequence:/5′-Cy5/rCrUrGrArGrGrUrGrArArArCrArUrCrCrCrArG SEQ ID NO: 17; Dharmacon), a related internal loop not selected by 9. 5′CAG/3′GCC SEQ ID NO: 17 loop (Sequence:/5′-Cy5/rCrUrCrArGrGrUrGrArArArCrArUrCrCrGrArG SEQ ID NO: 16; Dharmacon), and an RNA in which the loop is mutated to a base pair (Sequence:/5-Cy5/rCrUrGrArGrGrUrGrArArArCrArUrCrUrCrArG SEQ ID NO: 16; Dharmacon).
(§2) Briefly, Cy5-labeled RNA (10 nM) was prepared in 1× Binding Buffer and folded by heating at 60° C. for 5 min and then slowly cooling to room temperature. After cooling, Tween-20 was added to a final concentration of 0.1% (v/v). Compound solutions were prepared separately in 20 μL of 1× Binding Buffer at a final concentration of 5 μM (1% (v/v) DMSO), followed by 1:1 serial dilutions in 1× Binding Buffer. RNA and compound solutions were then mixed 1:1 by volume to a total of 20 μL.
(§3) Samples were incubated for 20 min at room temperature and then loaded into premium capillaries (NanoTemper Tech, Cat #MO-K025). The following parameters were used for MST measurements: 5-20% LED power (adjusted to keep fluorescence intensity between 2000 and 8000), 80% MST power, Laser-On time=30 s, Laser-Off time=25 s. The resulting data were analyzed by calculating the change in thermophoresis as a function of compound concentration and fitted by Equation 1, a one site binding model, in NanoTemper Tech's MST analysis software to yield the dissociation constant (Kd):
(§4) Where F is the concentration of fluorescently labeled RNA; unbound and bound refer to the thermophoresis signal at completely unbound and bound state of RNA, respectively; c is the concentration of the compound; f (c) is the thermophoresis signal at compound concentration of c; and Kd is the dissociation constant.

For experiment [3], the target named is 5′GAG/3′CCC loop at pri-miR-27a's Drosha site. The experiment is described as follows: Binding affinity by microscale thermophoresis (MST), Cy5-labeled RNA. On the set-up: species or system human. As to the method:
as §1, §2, §3, §4

Experiment [4] deals with 5′CAG/3′GCC loop. The experiment is described as follows: Binding affinity by MST, Cy5-labeled mutated loop RNA. On the set-up: species or system human. To be noted: mutated loop 5′CAG/3′GCC. As to the method:
as §1
Briefly, Cy5-labeled RNA (10 nM) was prepared in 1× Binding Buffer and folded by heating at 60° C. for 5 min and then slowly cooling to room temperature. […]
Samples were incubated for 20 min at room temperature and then loaded into premium capillaries (NanoTemper Tech, Cat #MO-K025). The following parameters were used for MST measurements: 5-20% LED power (adjusted to keep fluorescence intensity between 2000 and 8000), 80% MST power, Laser-On time=30 s, Laser-Off time=25 s. The resulting data were analyzed by calculating the change in thermophoresis as a function of compound concentration and fitted by Equation 1, a one site binding model, in NanoTemper Tech's MST analysis software to yield the dissociation constant (Kd): […]

Experiment [5] has as its system pri-miR-27a. The experiment is described as follows: RT-qPCR of pri- and mature miR-27a in MDA-MB-231 TNBC cells. The following applies: MDA-MB-231, RT-qPCR. The format is cell-based, human. As to the method: Cell lines. Compounds were tested in MDA-MB-231 TNBC cells (HTB-26, ATCC), LNCaP metastatic prostate cancer cells (gifted from Junli Luo lab), MCF-7 (HTB-22, ATCC) breast cancer cells, HeLa cervical adenocarcinoma cells (CCL-2, ATCC), and MCF-10a, a model of healthy breast epithelial cells (CRL-10317, ATCC).
Cell culture and compound treatment. All cells were maintained at 37° C. with 5% CO2. MDA-MB-231 and LNCaP cells were cultured in RPMI 1640 medium with L-glutamine & 25 mM HEPES (Corning) supplemented with 10% (v/v) fetal bovine serum (FBS; Sigma) and 1× (v/v) Antibiotic-Antimycotic solution (Corning). MCF-7 and HeLa cells were cultured in DMEM medium with 4.5 g/L glucose (Corning), supplemented with 10% FBS, 1× (v/v) Glutagro (Corning), and 1× (v/v) Antibiotic-Antimycotic solution. MCF10a cells were cultured in DMEM/F12 50/50 with L-glutamine & 15 mM HEPES (Corning), supplemented with 10% FBS, 20 ng/mL human epidermal growth factor (Pepro Tech Inc.), […] hydrocortisone (Pfaltz & Bauer), 100 ng/mL cholera toxin (Sigma-Aldrich), 10 μg/mL insulin (Sigma-Aldrich), and 1× (v/v) Antibiotic-Antimycotic solution.
MCF-10a cells were transfected with plasmids to express pri-miR-27a and mutant pri-miR-27a in 12- or 24-well plates with Lipofectamine 2000 per the manufacturer's protocol. For treatment of compounds, stocks were diluted in growth medium and added to cells for 48 h. The miRCURY miR-27a LNA inhibitor (QIAGEN, Cat #339121) was used as a positive control by diluting in growth medium to a final concentration of 1 nM. The miRCURY LNA Negative Control (QIAGEN, Cat #YI00199007-DDA) was used as a negative control, which has also diluted in growth medium to a final concentration of 1 nM.
Analysis of mRNA abundance: Each cell line was grown as a monolayer in 12- or 24-well plates and treated as described in “Cell culture and compound treatment”. After 48 h, the cells were lysed, and total RNA was harvested using a Zymo Quick RNA Miniprep Kit per the manufacturer's protocol. To measure the abundance of mature miRNAs, approximately 250 ng of total RNA was reverse transcribed using the High Flex Buffer provided in a miScript II RT Kit (Qiagen) per the manufacturer's protocol (10 μL total reaction volume). For pri-miRNAs and mRNA, approximately 300 ng of total RNA was reverse transcribed using a qScript cDNA synthesis kit (10 μL total reaction volume, Quanta BioSciences). For all types of RNAs, 2 μL of the RT reaction was used for qPCR using SYBR Green Master Mix and a QuantStudio™ 5 Real-Time PCR System. Relative abundance of mature miRNAs was calculated by normalizing to RNU6, and relative abundance for pri-miRNAs and mRNAs was calculated by normalizing to 18S ribosomal RNA, using the […]. (12)

Structures are written as SMILES.

As for `C#CCN(CC(N)=O)C(=O)C(CC(C)C)N1CC[C@H](NC(=O)[C@@H]2C[C@@H](N)CN2C(=O)c2c[nH]c3ccc(Cl)cc23)C1=O` (some centres unmarked) [Compound 4], the “number of RNA motifs bound that are unique to the compound” value in experiment [1] was found to be 2.

Turning to `C#CCN(CC(N)=O)C(=O)C(CC(C)C)N1CC[C@H](NC(=O)[C@@H]2C[C@H](N)CN2C(=O)c2c[nH]c3ccc(Cl)cc23)C1=O` (some centres unmarked) [Compound 3], in experiment [1], the “number of RNA motifs bound that are unique to the compound” value was determined as 41.

`C#CCN(CC(N)=O)C(=O)C1CCN1C(=O)C1CC(N)CN1C(=O)c1ccccc1C(=O)N1CCOCC1` (centres unmarked) [Compound 5]: in experiment [2], the saturable binding entry is “Saturable binding was not observed”. For the same compound, the affinity in experiment [3], expressed as Kd, was 0.7 ± 0.1 µM.

Consider `C#CCN(CC(N)=O)C(=O)C[C@H](Cc1c[nH]c2ccccc12)NC(=O)[C@@H]1C[C@@H](NC(=O)Cn2c(=O)[nH]c3ccccc3c2=O)CN1` [Compound 10], for which the binding result in experiment [4] and in experiment [3] was “binds to none of the three RNAs” each time. The saturable binding result in experiment [2] is “binds to none of the three RNAs”. The “inhibition of miR-27a (comparison of 5, 7, 9, 10)” value in experiment [5] is “inactive”.

Values taken from US20250051762A1, “PLATFORM USING DNA-ENCODED SMALL MOLECULE LIBRARIES AND RNA SELECTION TO DESIGN SMALL MOLECULES THAT TARGET RNA” (University of Florida Research Foundation, Incorporated, priority 2021, published 2025).
